Earlier results on three molecules are cited in patent publication US9442092B2, “Methods for treatment of autism” (priority 2011, dated 2016).

The conditions of data set [1]: in vivo.

With `CN1C(=O)[C@]23CC4=CC=C[C@H](O)[C@H]4N2C(=O)[C@@]1(CO)SS3` [gliotoxin, Gliotoxin], in the data set on HIV, the “Increase of HIV levels” value is given as 500%.

`COc1cc2c(c3oc(=O)c4c(c13)CCC4=O)[C@@H]1C=CO[C@@H]1O2` [Aflatoxin]: in the data set on HIV, the “Increase of HIV levels” value is listed as 500%.

For the molecule `CC(C)Cc1ccc(C(C)C(=O)O)cc1` (stereo not drawn) [Ibuprofen], in data set [1], the “Association with Autism” value is “no association”.
